Columns and labels:
[1] = tested on: B. vulgatus, B. thetaiotaomicron, C. innocuum, and C. symbiosum; assay: In vitro bacterial rescue study with leucovorin; format: cell-based
B. theta = assay: In vitro bacterial rescue study with folic acid; format: cell-based, Bacteroides thetaiotaomicron; settings: in the presence and absence of MTX; folic acid 0-250 μg/ml
Protocol: (§1) As described in the ur in vitro bacterial growth studies, 48-hour overnight cultures were grown in an anaerobic chamber in liquid BHI+ for the following isolates: Bacteroides vulgatus, Bacteroides thetaiotaomicron, Clostridium innocuum and Clostridium symbiosum. Each subculture was diluted down to an OD600 of 0.08-0.1, which was then further diluted 100-fold, and then used to inoculate a 96-well microtiter plate with 2-fold serial dilutions of MTX (Sigma, Cat #M9929) concentrations ranging from 0-450 μg/ml (0-990 μM) along the columns (1-10) and 2-fold serial dilutions of folic acid (Fischer Scientific, BP25195) ranging from 0-250 μg/ml (0-566 μM) along the rows (A-H). Each plate included media and growth controls. […]
(§2) Growth parameters (carrying capacity, time to mid-exponential and growth rate) were calculated in R using GrowthCurveR (Sprouffske, K., and Wagner, A. (2016), BMC Bioinformatics 17, 1726) (v0.2.1). […] For rescue studies, as above, growth parameters (carrying capacity, time to mid-exponential, growth rate, and area under the curve) were calculated in R using GrowthCurveR (Sprouffske and Wagner, 2016) (v0.2.1). Four isolates were evaluated with varying sensitivity to MTX (B. thetaiotaomicron, B. vulgatus, C. innocuum and C. symbiosum). […] Growth curves at 9 concentrations of MTX tested against 7 concentrations of folic acid were measured. […]

B. vulgatus = assay: In vitro bacterial rescue study with folic acid; format: cell-based, Bacteroides vulgatus; settings: folic acid 0-250 μg/ml; MTX 0-450 μg/ml
Protocol: as §1, §2

human gut microbiota = assay: MTX treatment of gnotobiotic mice colonized with human stool; 16S-seq and qPCR of gut microbiota; format: in vivo; settings: Donor 3 mice, oral MTX 50 mg/kg with or without equimolar folic acid
C. innocuum = assay: In vitro bacterial rescue study with folic acid; format: cell-based, Clostridium innocuum; settings: folic acid 0-250 μg/ml; MTX 0-450 μg/ml
Protocol: as §1, §2

C. symbiosum = assay: In vitro bacterial rescue study with folic acid; format: cell-based, Clostridium symbiosum; settings: MTX resistant isolate; high doses of MTX
Protocol: as §1, §2

## Nc1nc2c(c(=O)[nH]1)N(C=O)C(CNc1ccc(C(=O)N[C@@H](CCC(=O)O)C(=O)O)cc1)CN2 (some centres unmarked) [leucovorin]
[1]; leucovorin 0-125 μg/ml (FIG. 4D and 4E)
  effect of leucovorin on growth of the tested isolates: improved growth of 3 of the 4 tested isolates
[1]; leucovorin 0-125 μg/ml, linear regression (FIG. 4F)
  dose-dependent effects of leucovorin on growth in the presence of MTX: did not have any significant dose-dependent effects

## Nc1nc2ncc(CNc3ccc(C(=O)N[C@@H](CCC(=O)O)C(=O)O)cc3)nc2c(=O)[nH]1 [folic acid]
B. theta
  growth in response to folic acid: improved in a dose-dependent manner
B. vulgatus
  dose-dependent increases in growth with folic acid: only evident in the presence of MTX
Human gut microbiota
  rescue of the gut microbiota from MTX by co-administered folic acid (α- or β-diversity between groups): Neither route nor rescue resulted in a significant difference
Human gut microbiota; listed as Folic acid
  rescue of the gut microbiota from MTX by co-administered folic acid (α- or β-diversity between groups): did not markedly rescue the gut microbiota
C. innocuum
  dose-dependent increases in growth with folic acid: only evident in the presence of MTX
C. symbiosum
  effect of folic acid on MTX sensitivity: sensitized to MTX

— patent US20220160712A1, “METHODS OF TREATING RHEUMATOID ARTHRITIS AND FOR PREDICTING THE RESPONSE TO METHOTREXATE” (CHAN ZUCKERBERG BIOHUB, INC., priority 2020, published 2022)
